Test results: patent publication US10947242B2, “[1,2,4]triazolo[1,5and#8208;A]pyrimidine compounds as PDE2 inhibitors” (Janssen Pharmaceutica NV, priority 2016, dated 2021)
Structures can show the parent of a compound that is named as a salt. Where two headings read alike, the source gives them in different places.

Key:
Type in all cases: biochemical
[1] = target: T1, Human recombinant PDE2A (hPDE2A) (Homo sapiens, UniProt O00408); experiment: In vitro assay PDE2A (SPA, 3H-cGMP hydrolysis); conditions: for Emax: read-out: hPDE2A Emax
T1 construct: His tag (inferred from metal chelate purification); made in house; host or cells: Sf9 insect cells (baculovirus)

[2] = target: T2, Human recombinant PDE3A (hPDE3A) (Homo sapiens, UniProt Q14432); experiment: In vitro assay PDE3A (SPA, 3H-cAMP hydrolysis); conditions: for IC50: hPDE3B pIC50, read-out: pIC50 (converted); for Emax: read-out: hPDE3B Emax, read-out: Emax;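 on all read-outs here: the method names PDE3A and the table heading PDE3B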
T2 construct: purchased Scottish Biomedical; host or cells: Sf9 insect cells
Description: Human recombinant PDE3A (hPDE3A) was supplied as a partially purified insect cell lysate by Scottish Biomedical, it was cloned from human brain and expressed in Sf9 cells. Tested compounds were dissolved and diluted in 100% DMSO to a concentration 100 fold of the final concentration in the assay. Compound dilutions (0.4 μl) were added in 384 well plates to 20 μl of incubation buffer (50 mM Tris pH 7.8, 8.3 mM MgCl2, 1.7 mM EGTA). 10 μl of hPDE3A enzyme in incubation buffer was added and the reaction was started by addition of 10 μl substrate to a final concentration of 0.4 μM cAMP and 2.4 μCi/ml [^3H]-cAMP. The reaction was incubated for 60 min at room temperature. […] After sedimentation of the beads during 30 min the radioactivity was measured in a Perkin Elmer Topcount scintillation counter and results were expressed as cpm. For blanc values the enzyme was omitted from the reaction and replaced by incubation buffer. Control values were obtained by addition of a final concentration of 1% DMSO instead of compound.

[3] = target: T3, Human recombinant PDE10A (hPDE10A) (Homo sapiens, UniProt Q9Y233); experiment: In vitro assay PDE10A, human clone (SPA, 3H-cAMP hydrolysis)
T3 construct: His tag (inferred from metal chelate purification); made in house; host or cells: Sf9 insect cells (baculovirus)
Description: Rat recombinant PDE10A (rPDE10A2) was expressed in Sf9 cells using a recombinant rPDE10A baculovirus construct. […] Tested compounds were dissolved and diluted in 100% DMSO to a concentration 100 fold of the final concentration in the assay. Human recombinant PDE10A ([…]) was expressed in Sf9 cells using a recombinant hPDE10A baculovirus that was made and amplified in house. […] Compound dilutions (0.4 μl) were added in 384 well plates to 20 μl of incubation buffer (50 mM Tris pH 7.8, 8.3 mM MgCl2, 1.7 mM EGTA). 10 μl of rPDE10A or hPDE10A enzyme in incubation buffer was added and the reaction was started by addition of 10 μl substrate to a final concentration of 60 nM cAMP and 0.008 μCi ^3H-cAMP. The reaction was incubated for 60 minutes at room temperature. […] After sedimentation of the beads during 30 minutes the radioactivity was measured in a Perkin Elmer Topcount scintillation counter and results were expressed as cpm. For blanc values the enzyme was omitted from the reaction and replaced by incubation buffer. Control values were obtained by addition of a final concentration of 1% DMSO instead of compound.

[4] = human recombinant PDE2A, 10 μM cGMP substrate, read-out: hPDE2A pIC50 (converted)
[5] = read-out: hPDE2A pIC50 (converted)
[6] = human clone (h), default, read-out: hPDE10A2 Emax
[7] = human clone (h), default, read-out: hPDE10A2 pIC50 (converted)
[8] = hPDE2A pIC50, human recombinant PDE2A, 10 μM cGMP substrate

T3 sequence (Q9Y233 267-1055): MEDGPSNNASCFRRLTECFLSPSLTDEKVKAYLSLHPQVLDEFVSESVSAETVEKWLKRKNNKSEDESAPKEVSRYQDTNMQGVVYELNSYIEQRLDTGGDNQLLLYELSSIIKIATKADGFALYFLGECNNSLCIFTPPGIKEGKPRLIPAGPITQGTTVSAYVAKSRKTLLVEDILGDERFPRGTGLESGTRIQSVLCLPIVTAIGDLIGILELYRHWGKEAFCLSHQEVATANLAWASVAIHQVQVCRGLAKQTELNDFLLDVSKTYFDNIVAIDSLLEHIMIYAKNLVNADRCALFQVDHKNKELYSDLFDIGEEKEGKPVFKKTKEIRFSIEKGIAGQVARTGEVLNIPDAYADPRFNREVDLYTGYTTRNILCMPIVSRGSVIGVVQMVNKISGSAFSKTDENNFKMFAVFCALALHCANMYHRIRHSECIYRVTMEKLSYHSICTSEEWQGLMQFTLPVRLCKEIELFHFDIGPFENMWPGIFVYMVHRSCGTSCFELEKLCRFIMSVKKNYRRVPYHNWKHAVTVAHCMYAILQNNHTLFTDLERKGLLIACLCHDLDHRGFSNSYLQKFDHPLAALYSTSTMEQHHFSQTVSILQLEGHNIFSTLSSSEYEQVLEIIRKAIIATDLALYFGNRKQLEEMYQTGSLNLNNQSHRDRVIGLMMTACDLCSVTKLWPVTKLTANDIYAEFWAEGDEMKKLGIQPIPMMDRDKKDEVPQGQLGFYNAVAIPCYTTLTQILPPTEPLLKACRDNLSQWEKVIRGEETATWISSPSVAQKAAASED
T1 sequence (O00408 whole entry): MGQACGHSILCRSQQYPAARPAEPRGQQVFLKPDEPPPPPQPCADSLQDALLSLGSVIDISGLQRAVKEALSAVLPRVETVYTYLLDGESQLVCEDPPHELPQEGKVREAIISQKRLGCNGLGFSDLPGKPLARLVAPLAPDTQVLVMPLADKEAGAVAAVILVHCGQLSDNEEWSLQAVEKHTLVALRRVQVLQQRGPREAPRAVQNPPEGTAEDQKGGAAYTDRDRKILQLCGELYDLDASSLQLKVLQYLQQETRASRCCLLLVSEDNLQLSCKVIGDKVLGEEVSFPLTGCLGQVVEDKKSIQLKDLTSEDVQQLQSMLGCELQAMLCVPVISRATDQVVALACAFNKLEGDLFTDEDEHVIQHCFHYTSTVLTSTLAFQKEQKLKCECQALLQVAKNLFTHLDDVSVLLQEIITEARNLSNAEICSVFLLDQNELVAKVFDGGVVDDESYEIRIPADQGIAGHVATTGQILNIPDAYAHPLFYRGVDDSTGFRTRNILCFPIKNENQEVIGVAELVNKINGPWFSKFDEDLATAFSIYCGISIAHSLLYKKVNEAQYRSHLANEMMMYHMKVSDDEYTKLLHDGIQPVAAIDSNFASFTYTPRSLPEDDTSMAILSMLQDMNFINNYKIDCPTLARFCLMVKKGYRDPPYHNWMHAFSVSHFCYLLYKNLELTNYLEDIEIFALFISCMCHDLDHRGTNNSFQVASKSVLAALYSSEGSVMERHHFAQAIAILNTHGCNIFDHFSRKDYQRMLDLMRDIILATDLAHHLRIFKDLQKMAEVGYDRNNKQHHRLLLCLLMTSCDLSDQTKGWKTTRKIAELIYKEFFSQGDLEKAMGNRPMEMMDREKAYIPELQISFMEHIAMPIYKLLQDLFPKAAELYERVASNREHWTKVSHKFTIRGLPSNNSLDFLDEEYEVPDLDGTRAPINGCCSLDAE
T2 sequence (Q14432 whole entry): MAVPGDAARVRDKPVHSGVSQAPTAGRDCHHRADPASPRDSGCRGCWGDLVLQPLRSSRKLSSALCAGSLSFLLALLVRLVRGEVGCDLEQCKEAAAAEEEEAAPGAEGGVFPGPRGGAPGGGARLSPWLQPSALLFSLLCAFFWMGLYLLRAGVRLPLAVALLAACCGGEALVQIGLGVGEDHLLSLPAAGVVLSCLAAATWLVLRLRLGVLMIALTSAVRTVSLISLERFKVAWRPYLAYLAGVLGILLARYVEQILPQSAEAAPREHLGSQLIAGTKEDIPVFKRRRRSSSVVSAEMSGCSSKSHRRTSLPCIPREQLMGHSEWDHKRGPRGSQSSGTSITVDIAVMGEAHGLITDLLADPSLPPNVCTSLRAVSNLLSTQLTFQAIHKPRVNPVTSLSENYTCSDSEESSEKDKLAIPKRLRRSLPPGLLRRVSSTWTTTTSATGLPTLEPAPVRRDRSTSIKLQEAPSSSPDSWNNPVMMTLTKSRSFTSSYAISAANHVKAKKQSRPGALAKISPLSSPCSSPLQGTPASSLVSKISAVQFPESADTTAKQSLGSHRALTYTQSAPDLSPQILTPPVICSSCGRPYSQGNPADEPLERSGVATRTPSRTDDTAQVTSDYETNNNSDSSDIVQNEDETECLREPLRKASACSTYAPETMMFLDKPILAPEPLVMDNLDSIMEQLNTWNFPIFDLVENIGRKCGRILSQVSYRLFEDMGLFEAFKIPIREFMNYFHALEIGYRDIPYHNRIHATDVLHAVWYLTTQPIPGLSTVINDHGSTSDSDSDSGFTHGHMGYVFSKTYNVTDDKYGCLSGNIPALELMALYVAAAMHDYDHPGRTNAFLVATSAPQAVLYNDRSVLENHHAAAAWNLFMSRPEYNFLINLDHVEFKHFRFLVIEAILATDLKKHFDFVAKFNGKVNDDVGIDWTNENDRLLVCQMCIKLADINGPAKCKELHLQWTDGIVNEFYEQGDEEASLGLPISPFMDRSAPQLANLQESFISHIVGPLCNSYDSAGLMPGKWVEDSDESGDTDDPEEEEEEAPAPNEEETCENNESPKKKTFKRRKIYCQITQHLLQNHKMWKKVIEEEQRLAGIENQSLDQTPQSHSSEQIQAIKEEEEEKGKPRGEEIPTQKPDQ

IC50 [1, 4] [nM] | Emax ([1]; human recombinant PDE2A) [%] | Emax [1] [%] | IC50 [1, 5] [nM] | IC50 [2] [nM] | Emax [2] [%] | Emax [3, 6] [%] | IC50 [3, 7] [nM] | Emax ([3]; human clone by default (no (r) mark), read-out: hPDE10A2 or rPDE10A2 Emax) [%] | IC50 ([3]; human clone by default (no (r) mark), read-out: hPDE10A2 or rPDE10A2 pIC50 (converted)) [nM] | hPDE2A Emax [1] | hPDE2A pIC50 [1] | hPDE2A Emax ([1]; human recombinant PDE2A) | hPDE2A pIC50 ([1]; human recombinant PDE2A, 10 μM cGMP substrate) | hPDE3B Emax [2] | hPDE10A2 Emax ([3]; human clone (h), default) | hPDE10A2 pIC50 ([3]; human clone (h), default) | Structure (SMILES) | IC50 [1, 8] [nM] | IC50 ([1]; hPDE2A pIC50) [nM]
9.55 | 100 | 100 | 9.55 | > 10000 | 39 | 79 | 2570 | – | – | – | – | – | – | – | – | – | CCCC[C@@H]1CCN(C(=O)c2cc(C)nc(C)c2)C[C@H]1c1cc(C(F)F)nc2ncnn12 (mixture of isomers) [Compound 44] | – | –
138 | 100 | 100 | 138 | > 10000 | 18 | 45 | 9120 | 45 | 9120 | – | – | – | – | – | – | – | CCCC[C@H]1CCN(C(=O)c2cc(C)nc(C)c2)C[C@H]1c1cc(C(F)F)nc2ncnn12 (mixture of isomers) [Compound 219] | – | –
> 10000 | 37 | 37 | > 10000 | > 10000 | 1 | 24 | > 10000 | – | – | – | – | – | – | – | – | – | CCCC[C@@H]1CCN(C(=O)c2cc(C)nc(C)c2)C[C@H]1c1cc(C(F)F)nc2ncnn12 (single isomer, unassigned) [Compound 45] | – | –
– | – | 93 | 28.2 | 4900 | 64 | 24 | > 10000 | – | – | – | – | – | – | – | – | – | O=C(c1ccc2occc2c1)N1CCC[C@](F)(c2cc(C(F)F)nc3ncnn23)C1 (single isomer, unassigned) [Compound 138] | – | –
97.7 | 91 | 91 | 97.7 | > 10000 | 35 | 13 | > 10000 | – | – | – | – | – | – | – | – | – | C[C@]1(c2cc(C(F)F)nc3ncnn23)CCCN(C(=O)c2ccc3c(ccn3CCF)c2)C1 (single isomer, unassigned) [Compound 200] | – | –
589 | 62 | 62 | 589 | > 10000 | 30 | 4 | > 10000 | – | – | – | – | – | – | – | – | – | Cc1csc(C(=O)N2CCC[C@](C)(c3cc(C(F)F)nc4ncnn34)C2)c1 (single isomer, unassigned) [Compound 208] | – | –
575 | 61 | 61 | 575 | > 10000 | 7 | 8 | > 10000 | – | – | – | – | – | – | – | – | – | C[C@]1(c2cc(C(F)F)nc3ncnn23)CCCN(C(=O)c2ccc3nccn3c2)C1 (single isomer, unassigned) [Compound 212] | – | –
– | – | – | – | – | – | – | – | – | – | 88 | 5.96 | 88 | 5.96 | 13 | 50 | 5.01 | Cc1cc(C(=O)N2CC[C@H](C)[C@@H](c3cc(C)nc4ncnn34)C2)cc(C)n1 [Compound 1b] | – | –
0.794 | 100 | 100 | 0.794 | 75.9 | 100 | 101 | 17 | – | – | – | – | – | – | – | – | – | Cc1cc([C@@H]2CN(C(=O)c3oc4ccccc4c3C)CC[C@H]2C)n2ncnc2n1 [Compound 7] | – | –
1.1 | 100 | 100 | 1.1 | 275 | 97 | 100 | 11.2 | – | – | – | – | – | – | – | – | – | Cc1cc([C@@H]2CN(C(=O)c3cc4ccccc4o3)CC[C@H]2C)n2ncnc2n1 [Compound 8] | – | –

Structure (SMILES) | IC50 [1, 4] [nM] | Emax ([1]; human recombinant PDE2A) [%] | Emax [1] [%] | IC50 [1, 5] [nM] | IC50 [2] [nM] | Emax [2] [%] | Emax [3, 6] [%] | IC50 [3, 7] [nM] | Emax ([3]; human clone by default (no (r) mark), read-out: hPDE10A2 or rPDE10A2 Emax) [%] | IC50 ([3]; human clone by default (no (r) mark), read-out: hPDE10A2 or rPDE10A2 pIC50 (converted)) [nM] | hPDE2A Emax [1] | hPDE2A pIC50 [1] | hPDE2A Emax ([1]; human recombinant PDE2A) | hPDE2A pIC50 ([1]; human recombinant PDE2A, 10 μM cGMP substrate) | hPDE3B Emax [2] | hPDE10A2 Emax ([3]; human clone (h), default) | hPDE10A2 pIC50 ([3]; human clone (h), default) | IC50 [1, 8] [nM] | IC50 ([1]; hPDE2A pIC50) [nM]
Cc1cc(C(=O)N2CC[C@H](C)[C@@H](c3cc(C(F)F)nc4ncnn34)C2)cc(C)n1 [220 (•HCl)] | – | – | 54 | – | – | – | 27 | > 10000 | – | – | – | – | – | – | – | – | – | 977 | –
Cc1cc([C@H]2CN(C(=O)c3ccc(C)c(C)n3)CC[C@@H]2C)n2ncnc2n1 [Compound 3b] | – | – | 64 | – | > 10000 | 14 | 19 | > 10000 | – | – | – | – | – | – | – | – | – | 5620 | 5620
Cc1cc([C@@H]2CN(C(=O)c3ccc4occ(C)c4c3)CC[C@H]2C)n2ncnc2n1 [Compound 5] | – | – | 100 | – | 589 | 97 | 100 | 8.91 | – | – | – | – | – | – | – | – | – | 0.955 | 0.955
